Assay results reported in patent US20160287566A1, “Anti-demodectic active agents and topical compositions for the treatment of demodicosis in humans and animals” (priority 2015, published 2016).
Entries after “also recorded” stand apart in the source; their conditions may differ.

Assays:
[1] = tested on: Demodex; test: Human in vivo testing of topical compositions (inventor's self-test, once daily at night) on signs and symptoms of demodicosis
Text: Demodectic mites rapidly desiccate and die when removed from the body and cannot reproduce in vitro, and skin conditions triggered by demodex are part of a complex innate immune response not yet fully explained by medical research. […] Treatment is preferentially once-daily, at night, with topical applications, of a rinse-off shampoo/shower gel, and of a leave-on skin lotion. Treatment of the inflammatory response to demodex with compositions comprising the invention is novel and not previously reported. Treatment of the inflammatory response to demodex includes treatment of type 1 flushing rosacea, type 2 acne rosacea, type 4 ocular rosacea, demodicosis gravis, granulomatous rosacea, and pityriasis folliculorum, and treatment of demodicosis in mammalian quadrupeds, namely, demodectic mange.
Sebaceous glands and meibomian glands clogged by mite-detritus atrophy somewhat, extending the time for complete meibomian gland and pilosebaceous unit healing to approximately 110 days.^12 The foregoing results are consistent with the suppression or eradication of demodectic mites, establishing piroctone olamine treatment as anti-demodectic, as shown by the reduction or elimination of blepharitis, meibomian gland dysfunction, and papules about the eyelids, nose, lips, and lip margins.
The rinse-off cleanser of the compositions comprising the invention, is used as a typical topical shampoo/shower gel, and can be used over the entire scalp and body, with the exception that the rinse-off cleanser is applied to a wet body and lathered without running shower-water, so that the cleanser can be massaged onto the skin and scalp for 3 to 5 minutes, paying particular attention to the face and margins of the eyelids, and then rinsed off. Neither composition is intended to be applied directly onto the cornea, as the eyes are expected to be shut when applying either composition.
The leave-on lotion described herein is used as any typical lotion, and can be used over the entire body, paying particular attention to the face and margins of the eyes, preferentially at night. […]

[2] = cited from earlier work
[3] = tested on: Malassezia; test: Self-treatment of seborrheic dermatitis with climbazole topical products; assay type: in vivo, human; conditions: rinse-off shampoo/shower gel and leave-on lotion with 0.07% climbazole as active ingredient, MCT oil base
Text: A brief history underscores the relevance of the test results. […] Dermatitis caused a severe impairment in the quality of life. Therefore, beginning three years ago, the inventor studied dermal inflammations, to conduct an accurate differential diagnosis and treat their skin condition. […] Hegor's product however contains sodium lauryl sulfate, which irritates the skin and so this shampoo cannot be used as a leave-on lotion. Moreover, all commercial lotions are formulated with oils with carbon-chain lengths longer than 10 such that Malassezia metabolizes all commercial lotions, which greatly exacerbated the inventor's seborrheic dermatitis. (See, non-patent reference number 30, by Wilde.) Dissatisfied with commercial products that made seborrheic skin conditions worse, sixteen months ago the inventor compounded topical compositions, a rinse-off shampoo/shower gel and a leave-on lotion, where the active ingredient was 0.07% climbazole and the base-oil was exclusively MCT oil (caprylic/capric oil), comprised only of carbon chain lengths of C8 and C10. While using this compounded topical treatment, all symptoms of seborrheic dermatitis induced by Malassezia were eliminated approximately one year ago. […]

[4] = usage thousands of time in excess of the compositions disclosed; cited from earlier work

CC(C)(C)C(=O)C(Oc1ccc(Cl)cc1)n1ccnc1 (stereo not shown) [climbazole, 1-(4-Chlorophenoxy)-1-(imidazol-1-yl)-3,3-dimethyl-2-butanone]
red eye and dry eye symptoms ([1]; under 0.07% climbazole-only compositions, after seborrheic dermatitis symptoms were eliminated): increased significantly
solubility in water [2]: barely soluble
symptoms of seborrheic dermatitis induced by Malassezia [3]: eliminated

Cc1cc(CC(C)CC(C)(C)C)n(O)c(=O)c1.NCCO (stereo not shown) [piroctone olamine, 1-Hydroxy-4methyl-6-(2,4,4-trimethylpentyl)-2(1H) pyridinone, 2-aminoethanol salt]
anti-demodectic treatment effect (concluded from symptom relief) ([1]; after compounding and testing the compositions, human test subject): effective anti-demodectic treatment
symptoms and signs of blepharitis, meibomian gland dysfunction, and papules about the eyelid margins and lip margins ([1]; topical compositions with 0.14% piroctone olamine as oil in water emulsion, rinse-off shampoo/shower gel and leave-on lotion once daily at night): reduced and eliminated; also recorded: rapid and dramatic reduction
solubility in water [2]: barely soluble
toxicity in topical usage [4]: non-toxic
